Experimental data taken from PubChem BioAssay AID2060890 (Molecular Pharmacology Branch, DTP, NCI, 2025).
pIC50: −log10 of the molar value.

Test system: LG0703-F948-PDC complex spheroid viability
Experiment: Anticancer human tumor LG0703-F948-PDC patient-derived lung adenocarcinoma cell line growth inhibition [RAS]
Conditions: for pIC50: curve of first compound; for viability, T/C: stronger effect = lower value; active means viability on the fitted dose curve at most 10% of control; inactive means the rest
Summary of the method: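 Tumour cells grown as complex spheroids with HUVEC endothelial cells and mesenchymal stem cells, treated with RAS pathway inhibitor combinations. Each agent spans half-log steps from near clinical Cmax, or 10 microM where Cmax is unknown.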
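Further: spheroids exposed to agents for 7 days.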
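Wherever viability, T/C is given: 100% = DMSO vehicle wells.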

Nc1ccn(C2OC(CO)C(O)C2(F)F)c(=O)n1 (configuration not stated) + C#Cc1c(F)ccc2cc(O)cc(-c3ncc4c(N5CC6CCC(C5)N6)nc(OCC56CCCN5CC(F)C6)nc4c3F)c12
8.19: pIC50 (second compound 0.316 µM)
inactive: viability, T/C (second compound 0.0316 µM, first compound 0.00316 µM) 68.2% | viability, T/C (second compound 0.0316 µM, first compound 0.01 µM) 37.7% | viability, T/C (second compound 0.0316 µM, first compound 0.0316 µM) 30.6% | viability, T/C (second compound 0.0316 µM, first compound 0.1 µM) 34.1% | viability, T/C (second compound 0.0316 µM, first compound 0.316 µM) 25.7% | viability, T/C (second compound 0.0316 µM, first compound 1 µM) 28.3% | viability, T/C (second compound 0.1 µM, first compound 0.00316 µM) 74.2% | viability, T/C (second compound 0.1 µM, first compound 0.01 µM) 45% | viability, T/C (second compound 0.1 µM, first compound 0.0316 µM) 26.9% | viability, T/C (second compound 0.1 µM, first compound 0.1 µM) 27.4% | viability, T/C (second compound 0.1 µM, first compound 0.316 µM) 31.9% | viability, T/C (second compound 0.1 µM, first compound 1 µM) 27% | viability, T/C (second compound 0.316 µM, first compound 0.00316 µM) 63.7% | viability, T/C (second compound 0.316 µM, first compound 0.01 µM) 40.8% | viability, T/C (second compound 0.316 µM, first compound 0.0316 µM) 31.6% | viability, T/C (second compound 0.316 µM, first compound 0.1 µM) 29% | viability, T/C (second compound 0.316 µM, first compound 0.316 µM) 26.6% | viability, T/C (second compound 0.316 µM, first compound 1 µM) 23.5% | viability, T/C (second compound 1 µM, first compound 0.00316 µM) 59% | viability, T/C (second compound 1 µM, first compound 0.01 µM) 35.4% | viability, T/C (second compound 1 µM, first compound 0.0316 µM) 32.7% | viability, T/C (second compound 1 µM, first compound 0.1 µM) 23.8% | viability, T/C (second compound 1 µM, first compound 0.316 µM) 26.4% | viability, T/C (second compound 1 µM, first compound 1 µM) 25.6% | viability, T/C (second compound 3.16 µM, first compound 0.00316 µM) 53% | viability, T/C (second compound 3.16 µM, first compound 0.01 µM) 34.7% | viability, T/C (second compound 3.16 µM, first compound 0.0316 µM) 34.2% | viability, T/C (second compound 3.16 µM, first compound 0.1 µM) 30.9% | viability, T/C (second compound 3.16 µM, first compound 0.316 µM) 32% | viability, T/C (second compound 3.16 µM, first compound 1 µM) 26.9% | viability, T/C (second compound 10 µM, first compound 0.00316 µM) 41.5% | viability, T/C (second compound 10 µM, first compound 0.01 µM) 29% | viability, T/C (second compound 10 µM, first compound 0.0316 µM) 32.5% | viability, T/C (second compound 10 µM, first compound 0.1 µM) 33.5% | viability, T/C (second compound 10 µM, first compound 0.316 µM) 34% | viability, T/C (second compound 10 µM, first compound 1 µM) 30.7%
8.20: pIC50 (second compound 0.0316 µM)
> 8.50: pIC50 (second compound 10 µM)
8.30: pIC50 (second compound 1 µM)
8.09: pIC50 (second compound 0.1 µM)
8.41: pIC50 (second compound 3.16 µM)
